From article PMC8795738, “The Tarantula Venom Peptide Eo1a Binds to the Domain II S3-S4 Extracellular Loop of Voltage-Gated Sodium Channel NaV1.8 to Enhance Activation” (Frontiers in Pharmacology, 2022)
Where a SMILES comes first, the peptide text is derived from it. Bridges are numbered along the chain shown (N, C = ends).

Experiments:
[1] = tested on: NaV1.7 with DII S3-S4 loop of NaV1.8; assay: Voltage-dependence of activation, NaV1.7/NaV1.8 chimera DII S3-S4; type: cell-based, human; conditions: Eo1a 10 μM; NaV1.7 with NaV1.8 DII S3-S4; HEK293 β1/β2, transient; mean ± SEM, n = 3–6 cells
Description: (§1) Human Embryonic Kidney (HEK) 293 cells stably expressing human NaV1.1 to NaV1.7/β1 (SB Drug Discovery, Glasgow, United Kingdom), Chinese Hamster Ovary (CHO) cells stably expressing human NaV1.8/β3 in a tetracycline-inducible system (ChanTest, Cleveland, OH, United States), and HEK293 cells stably expressing rat transient receptor potential vanilloid 1 (TRPV1) were cultured as previously described ([Yin et al., 2020]). Human KV2.1 and NaV1.7 mutants were transiently transfected into HEK293 cells stably expressing β1/β2 using Lipofectamine 2000 (Thermo Fisher Scientific, Scoresby, VIC, Australia) and used for patch-clamp experiments 48 h after transfection. Cells were grown in an incubator at 37°C with 5% CO2 and passaged every 3–4 d (at 70–80% confluency) using TrypLE Express (Thermo Fisher Scientific).
Wild-type (WT) hNaV1.7 cDNA (NM_002,977, a gift from Dr James Cox, University College London) was subjected to in vitro site-directed mutagenesis using the QuikChange™ XL mutagenesis kit (Agilent Technologies) following the manufacturer’s instructions. NaV1.7 mutants were generated by substituting the domain II (DII) S1-S2 loop, the DII S3-S4 loop, the domain IV (DIV) S1-S2 loop and the DIV S3-S4 loop in NaV1.7 with the corresponding regions of NaV1.8. The mutations were verified by sequencing at the Brisbane node of the Australian Genome Research Facility. […]

[2] = target: T1, KV2.1 (Homo sapiens, UniProt Q14721); assay: KV2.1 currents, whole-cell patch-clamp; type: cell-based; conditions: Eo1a 10 μM, 5 min, HEK293, human KV2.1, n = 3
T1 construct: expressed in transfected cells; host or cells: HEK293 cells stably expressing β1/β2, transient transfection with Lipofectamine 2000
T1 sequence (Q14721 1-858): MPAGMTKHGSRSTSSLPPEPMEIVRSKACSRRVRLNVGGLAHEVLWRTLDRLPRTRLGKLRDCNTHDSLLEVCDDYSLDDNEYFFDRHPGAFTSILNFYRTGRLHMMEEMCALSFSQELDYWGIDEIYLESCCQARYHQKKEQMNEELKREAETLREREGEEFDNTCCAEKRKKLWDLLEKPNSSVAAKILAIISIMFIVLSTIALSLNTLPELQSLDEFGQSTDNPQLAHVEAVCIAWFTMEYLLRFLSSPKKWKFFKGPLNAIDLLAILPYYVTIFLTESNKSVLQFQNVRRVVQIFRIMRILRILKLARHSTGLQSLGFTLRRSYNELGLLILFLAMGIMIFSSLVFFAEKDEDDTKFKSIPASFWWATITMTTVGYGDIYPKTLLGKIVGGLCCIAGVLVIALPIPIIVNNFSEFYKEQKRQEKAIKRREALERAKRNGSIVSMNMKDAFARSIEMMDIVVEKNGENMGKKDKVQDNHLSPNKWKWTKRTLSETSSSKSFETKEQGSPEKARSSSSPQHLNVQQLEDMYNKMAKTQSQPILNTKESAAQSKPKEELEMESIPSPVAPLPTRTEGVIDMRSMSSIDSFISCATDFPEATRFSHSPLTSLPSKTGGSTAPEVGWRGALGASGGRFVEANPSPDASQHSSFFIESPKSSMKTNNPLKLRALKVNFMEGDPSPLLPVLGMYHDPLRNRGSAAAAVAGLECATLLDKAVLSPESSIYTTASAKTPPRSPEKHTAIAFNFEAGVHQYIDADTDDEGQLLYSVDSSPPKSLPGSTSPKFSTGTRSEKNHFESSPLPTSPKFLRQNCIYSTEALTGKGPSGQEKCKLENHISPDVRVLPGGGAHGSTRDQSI
Description: as §1
(§2) Automated whole-cell patch-clamp recordings were performed with a QPatch-16 automated electrophysiology platform (Sophion Bioscience, Ballerup, Denmark) using single-hole (QPlate 16 with a standard resistance of 2 ± 0.4 MΩ) or multi-hole (QPlate 16X with a standard resistance 0.2 ± 0.04 MΩ, NaV1.8 only) as previously described ([McMahon et al., 2020]).
(§3) The extracellular solution (ECS) consisted of (in mM) 145 NaCl (replaced with 70 choline chloride for NaV1.4, NaV1.5 and NaV1.7), 4 KCl, 2 CaCl2, 1 MgCl2, 10 HEPES, and 10 glucose, pH to 7.4 with NaOH (adjusted to 305 mOsm/L with sucrose). For NaV recordings the intracellular solution (ICS) consisted of (in mM) 140 CsF, 1 EGTA, 5 CsOH, 10 HEPES, and 10 NaCl, pH to 7.3 with CsOH (adjusted to 320 mOsm/L with sucrose). For KV2.1 recordings the ICS consisted of (in mM) 50 KCl, 60 KF, 10 EGTA, 10 HEPES, 10 NaCl pH to 7.3 with KOH (adjusted to 320 mOsm/L with sucrose). TTX (1 μM) was added to the ECS for NaV1.8 recordings to inhibit background endogenous TTX sensitive current in CHO cells.
KV2.1 currents were acquired using a holding potential of −80 mV and a 300 ms pulse to +50 mV every 20 s (0.05 Hz). Eo1a was incubated for 5 min and compared to buffer control.

[3] = tested on: NaV1.4; assay: I-V protocol, whole-cell patch-clamp, NaV1.4; type: cell-based, human; conditions: Eo1a 10 μM
Description: as §1, §2, §3
I-V curves were obtained with a holding potential of −90 mV followed by a series of 500 ms step pulses that ranged from −110 to +80 mV in 5-mV increments (repetition interval 5 s) before and after 5 min incubation with Eo1a (10 μM). Conductance-voltage (G-V) curves were obtained by calculating the conductance (G) at each voltage (V) using equation G = I/(V − V rev ), where V rev is the reversal potential. G-V curves were fitted with a Boltzmann equation. […]
The time constant of fast inactivation (τ) was computed by fitting the current decay traces with a single exponential function using QPatch Assay Software 5.6 (Sophion). The time to peak was calculated from pulse onset to peak inward current using QPatch Assay Software 5.6 (Sophion).

For `CC[C@H](C)[C@@H]1NC(=O)[C@H](CCCNC(=N)N)NC(=O)[C@@H]2CSSC[C@@H]3NC(=O)CNC(=O)CNC(=O)[C@H](CC(C)C)NC(=O)[C@H](Cc4ccccc4)NC(=O)[C@H](Cc4c[nH]c5ccccc45)NC(=O)[C@H](CCCNC(=N)N)NC(=O)[C@@H](NC(=O)[C@@H](N)CC(=O)O)CSSC[C@H](NC(=O)[C@H](CSSC[C@@H](C(=O)N[C@@H](C)C(=O)N[C@@H](Cc4c[nH]c5ccccc45)C(=O)N[C@@H](CC(=O)O)C(=O)NCC(=O)N[C@H](C(=O)N[C@@H](Cc4ccccc4)C(N)=O)[C@@H](C)O)NC(=O)[C@H](Cc4ccc(O)cc4)NC(=O)[C@H](CCCCN)NC(=O)[C@H]([C@@H](C)CC)NC(=O)[C@H](Cc4ccc(O)cc4)NC(=O)CNC(=O)[C@H](CC(=O)O)NC1=O)NC(=O)[C@H](CC(=O)O)NC(=O)[C@H](CO)NC(=O)[C@H](CC(=O)O)NC(=O)[C@H](CCCCN)NC(=O)[C@H](CO)NC3=O)C(=O)N[C@@H](CCCCN)C(=O)N[C@@H](Cc1c[nH]cn1)C(=O)N[C@@H](CC(C)C)C(=O)N[C@@H](C)C(=O)N2` [Eo1a] (H-DCRWFLGGCSKDSDCCKHLACRIDGYIKYCAWDGTF-NH2; disulfide 2-16, 9-21, 15-30 (inferred); N-terminus assumed), which ΔV1/2 activation [1] is on record?
The ΔV1/2 activation was −20.4 ± 1.4 mV.

What about the “τactivation of KV2.1” value ([2]; 300 ms pulse to +50 mV, buffer 5.1 ± 0.4 ms) of the same molecule?
Its value is 13.6 ± 2.7 ms.

What about the “late current size of KV2.1, I250 ms” value ([2]; holding −80 mV, 300 ms pulse to +50 mV, buffer 6.25 ± 0.9 nA) of the same molecule?
Its value is 6.34 ± 0.9 nA.

And the “KV2.1 late current, inhibitory activity” value [2]?
The value was “no inhibitory activity”.

And the “peak current I/I0” value ([3]; 5 min, peak from I-V protocol at any voltage, normalised to buffer control, HEK293 hNaV1.4/β1, mean ± SEM, n = 4–6 cells)?
The value was 0.68 ± 0.04.

What about the V1/2 activation ([3]; NaV1.4, 5 min, control −27.6 ± 1.4 mV, mean ± SEM, n = 4–6) of the same molecule?
Its V1/2 activation is −28.8 ± 1.2 mV.

What about the “V1/2 inactivation (steady-state fast inactivation)” value ([3]; NaV1.4, 5 min, control −65.8 ± 1.3 mV, mean ± SEM, n = 4–6) of the same molecule?
Its value is −67.6 ± 1.2.

And the “effect on inactivation kinetics” value ([3]; NaV1.4, test pulse −20 mV)?
The value was “minimal effect”.
